# System: Plasmodium berghei
# Assay: Luciferase/luciferin-expressing antifolate-resistant parasites were used to infect a culture of HepG2 cells that were pre-incubated with compounds. Infected hepatocytes emit light due to the luciferase reaction. Assay results are presented as the percent inhibition of light emission compared to control. […]
# Type: functional
# Conditions: sporozoite; for IC50: read-out: LUCIFERASE INFECTION ASSAY - IC50; for IC90: read-out: LUCIFERASE INFECTION ASSAY - IC90
SMILES,IC50,IC90
CSc1ccc(Cl)c(C(=O)OCC(=O)N2CCN(C(=O)c3ccco3)CC2)c1,> 10 µM,> 10 µM
Cn1c(N)c(Sc2ccccc2[N+](=O)[O-])c(=O)n(C)c1=O,> 10 µM,> 10 µM
FC(F)Oc1ccc(-c2cs/c(=N\c3cccnc3)n2CC2CCCO2)cc1 (centres undefined),4.16 µM,> 10 µM
O=C1S/C(=C\c2ccccc2)C(=O)N1CCn1cnnn1,> 10 µM,> 10 µM
O=C(CSc1cccc[n+]1[O-])Nc1ccccc1OC(F)F,> 10 µM,> 10 µM
Cc1nn(-c2ccccc2)c2c1C(c1c[nH]c3ccccc13)N1C(=N2)C(N2CCN(c3ccc(F)cc3)CC2)=Nc2ccccc21 (centres undefined),> 10 µM,> 10 µM
CCCCNC(=S)NN=C(c1ccccc1)c1ccccc1,> 10 µM,> 10 µM
CCN(CC)S(=O)(=O)c1ccc(-c2ccc(C3NC(N)=Nc4nc5ccccc5n43)o2)cc1 (centres undefined),> 10 µM,> 10 µM
CCN(c1ccccc1)S(=O)(=O)c1cc(NC(=O)CNCc2ccco2)ccc1Cl,> 10 µM,> 10 µM
CCC/C(=N\n1c(-c2ccc(-c3ccccc3)cc2)cs/c1=N/c1c(C)n(C)n(-c2ccccc2)c1=O)c1ccccc1,> 10 µM,> 10 µM
O=C(Nc1ccc(Cl)cc1C(F)(F)F)C(OC(=O)C(c1ccccc1)c1ccccc1)c1ccccc1 (centres undefined),> 10 µM,> 10 µM
COCC/N=c1\scc(-c2ccc(OC(F)F)cc2)n1/N=C/c1ccccc1Cl,> 10 µM,> 10 µM
O=C(CCN1CCN(C(c2ccccc2)c2ccccc2)CC1)NNC(=O)c1ccc(I)cc1,> 10 µM,> 10 µM
C/N=c1\scc(-c2cc3ccccc3o2)n1/N=C/c1cccc(O)c1O,> 10 µM,> 10 µM
N=C1C(c2nc3ccccc3[nH]2)C(=O)CN1NC(=O)Cn1nnc(-c2cccc(C(F)(F)F)c2)n1 (centres undefined),> 10 µM,> 10 µM
CC(C)c1ccc2c(c1)/C(=N/Nc1ccc(S(=O)(=O)Nc3ccc(Cl)cc3)cc1[N+](=O)[O-])C(=O)N2,> 10 µM,> 10 µM
Cc1ccc(S(=O)(=O)c2nc(-c3ccccc3)oc2S(=O)(=O)CC(=O)NC(C)C)cc1,> 10 µM,> 10 µM
O=C(COC(=O)c1ccccc1Nc1cccc(C(F)(F)F)c1)c1ccc(C2CCCCC2)cc1,> 10 µM,> 10 µM
COc1ccccc1Oc1ccc(S(=O)(=O)N(c2cccnc2)S(=O)(=O)c2ccc(Oc3ccccc3OC)cc2)cc1,> 10 µM,> 10 µM

SMILES,IC50,IC90
CN1/C(=C\C(=O)COC(=O)c2cc3ccccc3cc2O)C(C)(C)c2ccccc21,> 10 µM,> 10 µM
O=S(=O)(c1ccc(NC(=S)N/N=C2\CC(c3ccccc3)Oc3ccccc32)cc1)N1CCOCC1 (centres undefined),8.98 µM,> 10 µM
Cn1ncc(C(C#N)c2nc3ccccc3s2)c(Cl)c1=O (centres undefined),> 10 µM,> 10 µM
CC(C)(C)C1CCc2nc3ccccc3c(C(=O)OCC(=O)c3ccc(Cl)s3)c2C1 (centres undefined),> 10 µM,> 10 µM
Cc1ccc(N2C(=O)/C(=C\c3ccc4c(c3)OCO4)N=C2SCC(=O)NCC2CCCO2)cc1 (centres undefined),> 10 µM,> 10 µM
C=CC/N=c1\scc(-c2ccc(Br)s2)n1/N=C/c1ccccn1,3.59 µM,4.27 µM
Cc1nc2ccc(N/N=C(/C(=O)Nc3c(Cl)cccc3Cl)C(=O)c3ccccc3)cc2s1,5.17 µM,8.28 µM
CC1Cc2ccccc2N1C(=O)COC(=O)c1ccc([N+](=O)[O-])cc1 (centres undefined),> 10 µM,> 10 µM
CCN(c1ccccc1)S(=O)(=O)c1ccc(C(=O)NC2CCCc3ccccc32)cc1 (centres undefined),> 10 µM,> 10 µM
CCn1c(C)nc2cc(C(=O)NNC(=O)c3cc4c(C)nn(-c5cccc(C(F)(F)F)c5)c4s3)ccc21,> 10 µM,> 10 µM
S=C(NCCc1ccc(Cl)cc1Cl)NC1CC2CCC1C2 (centres undefined),> 10 µM,> 10 µM
CC(C)C1CCC(C)C(OCC(O)CN2CCN(Cc3ccc4c(c3)OCO4)CC2)C1 (centres undefined),> 10 µM,> 10 µM
C/C(=N\NC(=O)c1ccc(COc2c(Br)cc(C)cc2Br)cc1)c1ccc(O)cc1O,1.12 µM,1.28 µM
Cc1ccc(S(=O)(=O)Nc2ccc(C(=O)/C=C/c3ccc(C(C)(C)C)cc3)cc2)cc1,> 10 µM,> 10 µM
S=C(NCc1ccccc1)N/N=C1/CCCCC1C1CCCCC1 (centres undefined),> 10 µM,> 10 µM
COc1ccc(-n2c(SCc3nc4ccccc4s3)nc3ccccc32)cc1,> 10 µM,> 10 µM
C=CCn1c(SCC(=O)c2cc(C)n(-c3ccc(OC)cc3)c2C)nc2sc(-c3ccccc3)cc2c1=O,> 10 µM,> 10 µM
C=CCn1c(SCC(=O)Nc2scc(-c3ccc(C(C)(C)C)cc3)c2C(=O)OCC)nc2sc3c(c2c1=O)CCC3,> 10 µM,> 10 µM
O=C(COC(=O)Cc1ccc(Cl)c(Cl)c1)Nc1ccc(OCc2ccccc2)cc1,> 10 µM,> 10 µM

SMILES,IC50,IC90
CC(C)N(C(=O)COn1nnc2ccc(S(=O)(=O)N(C)C)cc21)C(C)C,> 10 µM,> 10 µM
Cc1ccc(Sc2ccc(/C=C/C(=O)c3ccc(Cl)c(Cl)c3Cl)cc2[N+](=O)[O-])cc1,> 10 µM,> 10 µM
CCC(C)c1ccc(NC(=O)CN(Cc2ccccc2)S(=O)(=O)c2ccc(C)c(C)c2)cc1 (centres undefined),> 10 µM,> 10 µM
CC1CCCC(NC(=O)CNc2cc(C(F)(F)F)ccc2Oc2ccc(Br)cc2)C1C (centres undefined),> 10 µM,> 10 µM
Clc1ccccc1OCc1nnc(SCc2csc(-c3ccccc3)n2)o1,> 10 µM,> 10 µM
FC(F)Sc1ccc(NC(=S)NC2CCCc3ccccc32)cc1 (centres undefined),> 10 µM,> 10 µM
CCN(CC)CCn1c(NC(=O)c2cc3c(C)nn(-c4ccc(Cl)cc4)c3s2)nc2ccccc21,> 10 µM,> 10 µM
CCCCCC(/C=N/NC(=O)c1ccccc1O)=C\c1ccccc1,> 10 µM,> 10 µM
COCC/N=c1\scc(-c2ccc(OC(F)F)cc2)n1/N=C/c1ccccc1F,> 10 µM,> 10 µM
O=C(c1cn(-c2ccccc2)nc1-c1cc2ccccc2oc1=O)n1nnc2ccccc21,3.27 µM,3.36 µM
C=C(C)C/N=c1\scc(-c2ccccc2F)n1/N=C1\CCCCc2ccccc21,> 10 µM,> 10 µM
N#C/C(=C\c1ccc(N(c2ccccc2)c2ccccc2)cc1)C(=O)Nc1nccs1,0.525 µM,1.79 µM
O=C(/C(=C/c1ccc(N2CCOCC2)cc1)c1nc2ccccc2[nH]1)c1cccc(Cl)c1,> 10 µM,> 10 µM
CCOc1ccc(C(=O)c2c(-c3ccccc3)c3c4n(c(COc5cc(C)ccc5C(C)C)nn24)CCCC3)cc1,8.64 µM,> 10 µM
CCCCCCC(/C=N/NC(=O)c1ccccc1O)=C\c1ccccc1,> 10 µM,> 10 µM
Cc1cccc(C)c1NC(=O)CSc1nc(=O)c2c(C)c(-c3ccccc3)sc2[nH]1,> 10 µM,> 10 µM
COc1cc(/C=C/C(=O)c2ccc(Cl)c([N+](=O)[O-])c2)ccc1OC(F)F,> 10 µM,> 10 µM
CCC(C)(C)c1ccc(OCC(=O)Nc2cccc(-c3nc(C)sc3C(=O)Nc3cc(Cl)ccc3Cl)c2)c(C(C)(C)CC)c1,> 10 µM,> 10 µM
CCOC(=O)c1c(C)[nH]c(C(=O)CSc2nnc(C3COc4ccccc4O3)n2-c2ccccc2)c1C (centres undefined),> 10 µM,> 10 µM

# Source: ChEMBL document CHEMBL4483862, “Open-source discovery of chemical leads for next-generation chemoprotective antimalarials” (2018)
